{
  "source": "paper PMC4084622",
  "about": "(Journal of Medicinal Chemistry, 2014)",
  "origin": "cited, not measured here",
  "tested_on": "M. tuberculosis",
  "conditions": "M. tuberculosis H37Rv, Erdman, and drug-resistant strains; cited from earlier work",
  "data": [
    {"smiles": "CC(C)=CCC/C(C)=C/CNCCNC1C2CC3CC(C2)CC1C3", "note": "(stereo not shown) [compound 1, SQ109]", "values": [
      {"measurement": "minimum inhibitory concentration (MIC)", "result": "0.7 to 1.56", "unit": "µM"}
    ]}
  ]
}
